Test results published in the NIST ThermoML archive (doi:10.1021/je060411g).

Test: molar heat capacity at constant pressure
Settings: 101.33 kPa

CCC(C)(C)O [2-methylbutan-2-ol]
Settings | molar heat capacity at constant pressure [J/K/mol]
84.18 K, Crystal 3 | 59.96
84.41 K, Crystal 3 | 60.87
85.57 K, Crystal 3 | 65.73
86.62 K, Crystal 3 | 61.65
86.85 K, Crystal 3 | 61.55
87.94 K, Crystal 3 | 66.53
89.04 K, Crystal 3 | 62.98
89.26 K, Crystal 3 | 62.98
90.33 K, Crystal 3 | 68.13
91.86 K, Crystal 3 | 64.6
92.09 K, Crystal 3 | 64.56
93.17 K, Crystal 3 | 69.93
94.67 K, Crystal 3 | 66.27
94.91 K, Crystal 3 | 66.32
95.99 K, Crystal 3 | 71.8
97.49 K, Crystal 3 | 67.95
97.72 K, Crystal 3 | 68.07
98.82 K, Crystal 3 | 73.51
100.31 K, Crystal 3 | 70.24
100.54 K, Crystal 3 | 70.6
101.65 K, Crystal 3 | 75.44
103.12 K, Crystal 3 | 72.36
103.36 K, Crystal 3 | 72.54
104.48 K, Crystal 3 | 76.92
105.95 K, Crystal 3 | 73.89
106.18 K, Crystal 3 | 74.04
107.28 K, Crystal 3 | 78.03
108.74 K, Crystal 3 | 75.59
108.97 K, Crystal 3 | 75.81
110.03 K, Crystal 3 | 79.77
111.48 K, Crystal 3 | 77.47
111.7 K, Crystal 3 | 77.66
112.73 K, Crystal 3 | 81.52
114.17 K, Crystal 3 | 79.5
114.38 K, Crystal 3 | 79.61
115.38 K, Crystal 3 | 83.05
116.8 K, Crystal 3 | 81.46
117.02 K, Crystal 3 | 81.54
117.99 K, Crystal 3 | 84.42
119.4 K, Crystal 3 | 83.36
119.61 K, Crystal 3 | 83.37
120.55 K, Crystal 3 | 85.98
121.95 K, Crystal 3 | 85.58
122.15 K, Crystal 3 | 85.21
123.09 K, Crystal 3 | 87.29
124.47 K, Crystal 3 | 87.36
124.66 K, Crystal 3 | 87.39
125.59 K, Crystal 3 | 88.61
126.95 K, Crystal 3 | 89.35
127.13 K, Crystal 3 | 89.35
128.06 K, Crystal 3 | 90.2
129.39 K, Crystal 3 | 91.6
129.57 K, Crystal 3 | 91.64
130.5 K, Crystal 3 | 91.83
131.8 K, Crystal 3 | 96.05
131.98 K, Crystal 3 | 95.7
132.91 K, Crystal 3 | 94.22
134.19 K, Crystal 3 | 97.24
134.35 K, Crystal 3 | 97.17
135.29 K, Crystal 3 | 94.95
136.54 K, Crystal 3 | 98.99
136.7 K, Crystal 3 | 98.94
137.65 K, Crystal 3 | 96.49
138.86 K, Crystal 3 | 102.38
139.01 K, Crystal 3 | 102.19
139.98 K, Crystal 3 | 98.2
141.14 K, Crystal 3 | 106.32
141.29 K, Crystal 3 | 106.03
142.29 K, Crystal 3 | 99.86
143.38 K, Crystal 3 | 112.82
143.53 K, Crystal 3 | 110.46
144.58 K, Crystal 3 | 101.73
148.39 K, Crystal 2 | 89.39
148.47 K, Crystal 2 | 107.13
149.08 K, Crystal 2 | 105.46
150.5 K, Crystal 2 | 120.91
150.6 K, Crystal 2 | 120.49
151.3 K, Crystal 2 | 107.39
152.65 K, Crystal 2 | 120.48
152.74 K, Crystal 2 | 120.32
153.5 K, Crystal 2 | 109.42
154.78 K, Crystal 2 | 120.35
154.87 K, Crystal 2 | 120.25
155.66 K, Crystal 2 | 111.51
156.9 K, Crystal 2 | 120.17
156.98 K, Crystal 2 | 120.02
157.81 K, Crystal 2 | 113.29
159.02 K, Crystal 2 | 121.07
159.09 K, Crystal 2 | 120.89
159.95 K, Crystal 2 | 115.97
161.12 K, Crystal 2 | 121.73
161.19 K, Crystal 2 | 121.42
162.06 K, Crystal 2 | 118.39
163.23 K, Crystal 2 | 122.32
163.28 K, Crystal 2 | 121.93
164.16 K, Crystal 2 | 120.83
165.34 K, Crystal 2 | 123.02
165.36 K, Crystal 2 | 122.85
166.24 K, Crystal 2 | 123.44
167.44 K, Crystal 2 | 123.55
167.45 K, Crystal 2 | 123.69
168.29 K, Crystal 2 | 126.14
169.53 K, Crystal 2 | 124.34
169.57 K, Crystal 2 | 124.68
170.33 K, Crystal 2 | 128.89
171.63 K, Crystal 2 | 125.44
171.7 K, Crystal 2 | 125.8
172.35 K, Crystal 2 | 131.56
173.74 K, Crystal 2 | 126.82
173.85 K, Crystal 2 | 127.21
174.35 K, Crystal 2 | 134.03
175.89 K, Crystal 2 | 128.48
176.02 K, Crystal 2 | 128.7
176.33 K, Crystal 2 | 136.74
178.07 K, Crystal 2 | 130.33
178.22 K, Crystal 2 | 130.54
178.3 K, Crystal 2 | 139.33
180.24 K, Crystal 2 | 141.75
180.29 K, Crystal 2 | 131.97
180.44 K, Crystal 2 | 132.57
182.18 K, Crystal 2 | 143.44
182.53 K, Crystal 2 | 133.47
182.64 K, Crystal 2 | 134.58
184.1 K, Crystal 2 | 145.88
184.82 K, Crystal 2 | 137.28
186.01 K, Crystal 2 | 147.63
186.94 K, Crystal 2 | 141.12
187.9 K, Crystal 2 | 148.63
189 K, Crystal 2 | 143.98
189.78 K, Crystal 2 | 150.78
191 K, Crystal 2 | 146.05
191.66 K, Crystal 2 | 151.3
192.96 K, Crystal 2 | 149.37
193.52 K, Crystal 2 | 152.71
194.88 K, Crystal 2 | 150.75
195.38 K, Crystal 2 | 154.88
196.78 K, Crystal 2 | 151.94
197.23 K, Crystal 2 | 154.68
198.65 K, Crystal 2 | 154.12
199.07 K, Crystal 2 | 156.86
199.87 K, Crystal 2 | 155.64
200.5 K, Crystal 2 | 154.04
200.9 K, Crystal 2 | 157.7
201.17 K, Crystal 2 | 157.49
202.35 K, Crystal 2 | 156.44
202.62 K, Crystal 2 | 157.61
204.18 K, Crystal 2 | 158.51
204.44 K, Crystal 2 | 159.27
206 K, Crystal 2 | 158.34
206.25 K, Crystal 2 | 159.14
207.81 K, Crystal 2 | 159.84
208.06 K, Crystal 2 | 160.6
209.61 K, Crystal 2 | 159.89
209.85 K, Crystal 2 | 161.82
211.4 K, Crystal 2 | 158.72
211.64 K, Crystal 2 | 164.89
217.83 K, Crystal 1 | 141.33
218.04 K, Crystal 1 | 144.15
219.66 K, Crystal 1 | 143.15
219.86 K, Crystal 1 | 142.88
221.49 K, Crystal 1 | 143.51
221.68 K, Crystal 1 | 143.74
223.31 K, Crystal 1 | 144.13
223.5 K, Crystal 1 | 144.13
225.12 K, Crystal 1 | 144.75
225.31 K, Crystal 1 | 144.76
226.93 K, Crystal 1 | 145.48
227.12 K, Crystal 1 | 145.55
228.73 K, Crystal 1 | 146.48
228.92 K, Crystal 1 | 146.48
230.52 K, Crystal 1 | 147.54
230.71 K, Crystal 1 | 147.5
232.31 K, Crystal 1 | 148.37
232.49 K, Crystal 1 | 148.43
234.08 K, Crystal 1 | 149.45
234.27 K, Crystal 1 | 149.58
235.86 K, Crystal 1 | 150.05
236.04 K, Crystal 1 | 150.15
237.63 K, Crystal 1 | 151.12
237.81 K, Crystal 1 | 151.14
239.39 K, Crystal 1 | 152.5
239.57 K, Crystal 1 | 152.39
240.92 K, Crystal 1 | 153.28
241.15 K, Crystal 1 | 153.19
242.15 K, Crystal 1 | 153.94
242.9 K, Crystal 1 | 154.53
243.54 K, Crystal 1 | 154.92
244.65 K, Crystal 1 | 155.65
245.28 K, Crystal 1 | 156.32
246.39 K, Crystal 1 | 157.17
247.02 K, Crystal 1 | 157.69
248.12 K, Crystal 1 | 159.18
249.84 K, Crystal 1 | 160.99
251.56 K, Crystal 1 | 163.84
253.26 K, Crystal 1 | 168.27
